Laboratory results from PMC9321663, “The DevTox Germ Layer Reporter Platform: An Assay Adaptation of the Human Pluripotent Stem Cell Test” (Toxics, 2022).
Where two headings read alike, the source gives them in different places.

Tests used:
[1] = test system: SOX17 (endoderm marker) in RUES2-GLR cells; experiment: DevTox GLR-Endo assay: increase in percent SOX17-positive cells (AEID 3093, Sox17_up); format: cell-based, human; parameters: tp (winning model): unit not given here; conditions: for Emax: Homo sapiens; for HIT−CALL: tcpl plot AEID3093, COFF 20.3
Experimental: (§1) The total test chemical incubation period was 48 h.
(§2) (Supplementary Materials).

[2] = test system: BRA (mesoderm marker) in RUES2-GLR cells; experiment: DevTox GLR-Endo assay: increase in percent BRA-positive cells (AEID 3096, Bra_up); format: cell-based, human
Experimental: as §1, §2

RUES2-GLR cells = experiment: DevTox GLR-Endo assay: decrease in total cell count, cytotoxicity (AEID 3098, CellCount_dn); conditions: for Emax: Homo sapiens, read-out: Cell Count % Max Inhibition
Experimental: as §1
(§3) Assay plate controls included non-differentiated pluripotent cells maintained in complete Essential 8 Flex medium (baseline control), endoderm differentiated cells (differentiation control), endoderm differentiated cells treated with DMSO (0.2%) (solvent control), and TGF-ß receptor inhibitor SB431542 (1 µM)-treated cells (developmental toxicant-positive control) (Figure S3). All experiments were completed with a minimum of four biological replicates (n = 4).
as §2

[3] = test system: SOX2 (ectoderm and pluripotency marker) in RUES2-GLR cells; experiment: DevTox GLR-Endo assay: increase in percent SOX2-positive cells (AEID 3095, Sox2_up); conditions: for MAX_MEAN: tcpl plot AEID3095, maximum mean response; for MAX_MED: tcpl plot AEID3095, maximum median response; for AC50 / Emax: Homo sapiens; for AC50: read-out: ga (winning model); for Emax: read-out: tp (winning model);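 for all read-outs here: cells exposed to test chemicals for 48 h in total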
[4] = test system: SOX17 (endoderm marker) in RUES2-GLR cells; experiment: DevTox GLR-Endo assay: decrease in percent SOX17-positive cells (AEID 3094, Sox17_dn); conditions: for Emax / AC50: Homo sapiens; for Hit Call: Table S2, SOX17-positive cells, cutoff 3*bmad; for HIT−CALL: tcpl plot AEID3094, COFF 20.3
Experimental: as §1, §3, §2

[5] = test system: SOX17 in H9 human ESC line; conditions: SOX17 half-maximal inhibition concentration; read-out: hPST IC50; cited from earlier work
in vitro = conditions: human
Experimental: as §1, §3, §2

[6] = cited from earlier work; for Development Toxicant Classification: Table S2; for DT Class.: developmental toxicant classification
H9 human ESC line = conditions: cited from earlier work
[7] = tcpl plot AEID3093, maximum mean response, read-out: MAX_MEAN
[8] = tcpl plot AEID3093, maximum median response, read-out: MAX_MED
[9] = read-out: DevTox % Max Inhibition
[10] = 48 h, read-out: DevTox-GLR Endo AC50 (µM), SOX17 half-maximal activity concentration, 48 h exposure
[11] = read-out: ga (winning model), tcpl plot AEID3094, gain parameter of winning curve fit (log concentration, µM axis), hit calls only (converted)
[12] = cytotoxicity half-maximal concentration

Cell Count ACC (RUES2-GLR cells; human, 48 h) [µM] | Compound | Emax [1, 7] [%] | Emax [1, 8] [%] | HIT−CALL [1] | Emax (RUES2-GLR cells) [%] | MAX_MEAN [3] [Percent Activity] | MAX_MED [3] [Percent Activity] | Emax [4, 9] [%] | Emax ([4]; read-out: MAX_MEAN) [%] | Emax ([4]; read-out: MAX_MED) [%] | Hit Call [4] | HIT−CALL [4] | IC50 [5] [nM] | CC50 at 48 h (in vitro) [nM] | Development Toxicant Classification [6] | DT Class. ([6]; chemicals common with hPST) | AC50 [3] [nM] | Emax [3] [%] | AC50 [4, 10] [µM] | AC50 [4, 11] [µM] | also measured
>200 | Nc1nc2c(ncn2COCCO)c(=O)[nH]1 [Acyclovir] | 6.68 | 7.67 | 0 | 7.77 | 2.09 | 0.473 | 7.79 | 8.36 | 7.79 | Negative | 0 | > 200000 |  |  |  |  |  |  |  | HIT−CALL ([2]; tcpl plot AEID3096, COFF 0.774): 1; MAX_MEAN ([2]; tcpl plot AEID3096, maximum mean response): 0.981 Percent Activity; MAX_MED ([2]; tcpl plot AEID3096, maximum median response): 1.09 Percent Activity
0.5959 | CC/C(=C(/CC)c1ccc(O)cc1)c1ccc(O)cc1 [Diethylstilbestrol] | 6.93 | 6.73 | 0 | 95.7 | 6.09 | 4.84 | 101 | 101 | 101 | Positive | 1 |  | 710 | Positive | Pos | 2130 | 3.84 | 0.64 | 0.644 | DevTox-GLR Endo CC (RUES2-GLR cells; human, 48 h): 0.60 µM; Classification ([6]; developmental toxicant classification (Teratogen / Non-Teratogen) of reference and training chemicals, ref DOI per chemical: 10.1093/toxsci/kft239, 10.1093/toxsci/kfaa014, 10.1177/026119290203000204, 10.1038/s41598-020-59542-x): Teratogen; DT Class. ([6]; chemicals common with quickPredict): Pos; Emax ([4]; read-out: tp (winning model)): 101%; DevTox-GLR Endo ACC ([4]; activity concentration at cutoff, SOX17-positive cells, 48 h exposure): 0.54 µM; hPST TC50 (H9 human ESC line; [12]): 4400 nM; hPST TC50 (H9 human ESC line; hPST cytotoxicity): 4400 nM
0.001329 | COc1cccc2c1C(=O)c1c(O)c3c(c(O)c1C2=O)C[C@@](O)(C(=O)CO)C[C@@H]3O[C@H]1C[C@H](N)[C@H](O)[C@H](C)O1 [Doxorubicin] | 50.4 | 51.7 | 1 | 93.9 | 9.13 | 8.86 |  |  |  | Positive | 1 |  | 3.3 | Positive | Pos | 640 | 19.8 | 0.0019 | 0.00186 | tp (winning model) ([1]; tcpl plot AEID3093, top of winning curve fit, hit calls only): 48.7; DevTox ACC ([4]; Table S2, percent SOX17-positive cells, 48 h exposure): 0.001242 µM; hPST TC50 (H9 human ESC line; [12]): <300 nM; hPST TC50 (H9 human ESC line; hPST cytotoxicity): < 300 nM
122.424 | CC(C)Cc1ccc(C(C)C(=O)O)cc1 (stereo not shown) [Ibuprofen] | 11.6 | 11.9 | 0 | 22.2 | 0.944 | 0.561 | 23.9 | 24.3 | 23.9 | Positive | 1 | > 200000 |  |  |  |  |  |  |  | Emax ([4]; read-out: tp (winning model)): 42.6%
